{
  "source": "patent US9976141B2",
  "about": "“Compositions and methods for inhibiting gene expression of Hif2alpha” (Arrowhead Madison Inc., priority 2015, dated 2018)",
  "tested_on": "human (tumor) Hif2α (EPAS1) mRNA",
  "experiment": "Hif2α knockdown in orthotopic RCC tumor bearing mice, single injection of RNAi trigger-delivery polymer conjugate, RT-qPCR (Table 7)",
  "type": "in vivo",
  "settings": "single tail vein injection, relative to isotonic glucose",
  "method_in_brief": "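A single intravenous dose of Hif2α RNAi trigger–delivery polymer conjugate, or isotonic glucose vehicle, was given to nude mice with subcapsular A498-SEAP renal tumours (about 5–6 weeks old). At the indicated time, tumour RNA was assayed by biplex TaqMan qPCR against CycA, and relative expression was calculated by ΔΔCT versus vehicle.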",
  "data": [
    {"substance": "AD01891 (antisense UGUAAAACAAUUGUGUACUTT; sense AGUACACAAUUGUUUUACAT; Hif2alpha RNAi agent antisense strand; modified_base 2,4,6,8,10,13,14,16,18 /mod_base = “2′-deoxy-2′-fluoro corresponding nucleoside”; modified_base 1,3,5,7,9,11,12,15,17,19 /mod_base = “2′-O-methyl corresponding nucleoside”; modified_base 2,3,21 /mod_base = “5′-phosphorothioate corresponding nucleotide”; Hif2alpha RNAi agent sense strand; modified_base 3,5,8,9,11,13,17 /mod_base = “2′-deoxy-2′-fluoro corresponding nucleoside”; modified_base 1,2,4,6,7,10,12,14,15,16,18,19 /mod_base = “2′-O-methyl corresponding nucleoside”; modified_base 20 /mod_base = “3′-3′-linked nucleotide”; modified_base)", "values": [
      {"measurement": "Relative Expression day 4 (Hif2α mRNA in kidney tumor)", "setting": "RNAi trigger 100 μg, polymer 064 250 μg", "result": 0.189}
    ]},
    {"substance": "AD01024 (antisense TCUAGCAACAAAACCUUAATT; sense UUAAGGUUUUGUUGCUAGAT; Hif2alpha RNAi agent antisense strand; modified_base 2,4,6,8,10,12,14,16,18 /mod_base = “2′-deoxy-2′-fluoro corresponding nucleoside”; modified_base 3,5,9,11,13,15,17,19 /mod_base = “2′-O-methyl corresponding nucleoside”; modified_base 7 /mod_base = “2′-3′ seco corresponding nucleotide”; modified_base 21 /mod_base = “5′-phosphorothioate corresponding nucleotide”; Hif2alpha RNAi agent sense strand; modified_base 1,3,5,7,9,11,13,15,17,19 /mod_base = “2′-deoxy-2′-fluoro corresponding nucleoside”; modified_base 2,4,6,8,10,12,14,16,18 /mod_base = “2′-O-methyl corresponding nucleoside”; modified_b)", "values": [
      {"measurement": "Relative Expression day 4 (Hif2α mRNA in kidney tumor)", "setting": "RNAi trigger 80 μg, polymer 126 400 μg", "result": 0.51}
    ]},
    {"substance": "AD03263 (antisense AUUCAUGAAAUCGUUACGUUG; sense ACGUAACGAUUUCAUGAAUN; Hif2alpha RNAi agent antisense strand; modified_base 2,8,10,14 /mod_base = “2′-deoxy-2′-fluoro corresponding nucleoside”; modified_base 1,3,4,5,6,7,9,11,12,13,15,16,17,18,19,20,21 /mod_base = “2′-O-methyl corresponding nucleoside”; modified_base 2,3,20,21 /mod_base = “5′-phosphorothioate corresponding nucleotide”; Hif2alpha RNAi agent sense strand; modified_base 7,8,9 /mod_base = “2′-deoxy-2′-fluoro corresponding nucleoside”; modified_base 1,2,3,4,5,6,10,11,12,13,14,15,16,17,18,19 /mod_base = “2′-O-methyl corresponding nucleoside”; modified_base 20 /mod_base = “3′-3′-linked abasic site”; mod)", "values": [
      {"measurement": "Relative Expression day 4 (Hif2α mRNA in kidney tumor)", "setting": "RNAi trigger 50 μg, polymer 064 125 μg", "result": 0.134}
    ]}
  ]
}
